Experimental data: US10017481B2, “Conformationally constrained, fully synthetic macrocyclic compounds” (POLYPHOR AG, priority 2012, dated 2018)

What was measured:
Assay type in all cases: in vitro ADME
[1] = Plasma stability assay, human plasma; conditions: for Plasma Stability 240 min hum [% remain.]: human plasma, 10 μM, 37° C.; for half-life at 10 μM: human, plasma
Method: (§1) 5. Plasma and Metabolic Stability Assays Example compounds were dissolved in DMSO/H2O 90:10 to a final concentration of 10 mM for plasma stability determination and metabolic stability determination. The assays were conducted according to literature precedents (F. P. Guengerich, Analysis and Characterization of Enzymes; in: Principles and Methods of Toxicology, A. W. Hayes (Ed.) Raven Press: New York, 1989, 777-813; R. Singh et al., In vitro metabolism of a potent HIV-protease inhibitor (141W94) using rat, monkey and human liver S9, Rapid Commun. Mass Spectrom. 1996, 10, 1019-1026). Plasma Stability Assay Human plasma (Blutspendedienst SRK, Basel) and CD-1 mouse plasma (mixed gender pool >50 animals, Innovative Research, Calif., USA) are both sodium citrate stabilized. The assay is performed in triplicates at 10 μM compound concentration and 37° C. Samples are taken at 0, 15, 30, 60, 120 and 240 minutes and stopped by precipitation with 3 volumes of acetonitrile/formic acid 98:2 and shaking (2 minutes, 600 rpm) followed by filtration (−20 mm Hg). The filtrate is collected. The filtrate (100 μL) is evaporated and reconstituted in the suitable solvent (cf. Table 33) to be analyzed by HPLC/MS/MS. The resulting peak area counts are expressed in percent of the 0 value and used to determine the endpoint stability in % and the half life T in minutes. In order to monitor assay integrity the degradation of propantheline is assayed with every experimental set.

[2] = Plasma stability assay, CD-1 mouse plasma; conditions: for Plasma Stability 240 min mouse/(rat) [% remain.]: CD-1 mouse plasma, 10 μM, 37° C.; for half-life at 10 μM: both sexes, CD-1, mouse, plasma
Method: as §1

[3] = Metabolic stability assay, human liver microsomes; conditions: human microsomes, 10 μM, 37° C.; for half-life at 10 μM: both sexes, liver microsomes, 1 mg/ml protein, read-out: Metabolic Stability T ½ [min] hum
Method: (§2) 5. Plasma and Metabolic Stability Assays
(§3) Example compounds were dissolved in DMSO/H2O 90:10 to a final concentration of 10 mM for plasma stability determination and metabolic stability determination.
(§4) The assays were conducted according to literature precedents (F. P. Guengerich, Analysis and Characterization of Enzymes; in: Principles and Methods of Toxicology, A. W. Hayes (Ed.) Raven Press: New York, 1989, 777-813; R. Singh et al., In vitro metabolism of a potent HIV-protease inhibitor (141W94) using rat, monkey and human liver S9, Rapid Commun. Mass Spectrom. 1996, 10, 1019-1026).
(§5) Metabolic Stability Assay
(§6) Microsomes from a human 50 donor mixed gender pool and 1:1 mixtures of microsomes from CD-1 mouse single-gender pools are purchased from Celsis (Belgium). The enzymatic reaction is performed in a buffer containing an NADPH regeneration system and microsomes with the following end concentrations: 100 mM potassium phosphate buffer (all from Sigma), 1 mg/mL glucose-6-phosphate, 1 mg/mL β-nicotinamide adenine dinucleotide phosphate (NADP), 0.65 mg/mL magnesium chloride, 0.8 units/mL of glucose-6-phosphate dehydrogenase (prediluted with 5 mM citrate buffer), 10 μM compound and 1 mg/ml microsomal protein. Compounds are incubated at 37° C. in duplicates and samples are taken after 0, 5, 10, 20 and 60 minutes. After acetonitrile precipitation (3 volumes), shaking (2 minutes, 600 rpm) followed by centrifugation (10 minutes, 3200 g), the supernatant is dried reconstituted in the suitable solvent (cf. Table 33) and analyzed by HPLC/MS/MS. Metabolic turnover is expressed in % of the initial 0 minutes value and half life T½ (min) is calculated. Verapamil for human and propranolol for mouse are used as reference and are assayed with every experimental set.

[4] = Metabolic stability assay, CD-1 mouse microsomes; conditions: CD-1 mouse microsomes, 10 μM, 37° C.; for half-life at 10 μM: both sexes, 1 mg/ml protein, read-out: Metabolic Stability T ½ [min] mouse/(rat)
Method: as §2, §3, §4, §5, §6

SMILES | Plasma Stability 240 min hum [% remain.] [1] [% remain.] | half-life at 10 μM [1] [h] | Plasma Stability 240 min mouse/(rat) [% remain.] [2] [% remain.] | half-life at 10 μM [2] [h] | half-life at 10 μM [3] [min] | Metabolic Stability 60 min hum [% remain.] [3] [% remain.] | Metabolic Stability 60 min mouse/(rat) [% remain.] [4] [% remain.] | half-life at 10 μM [4] [min]
COc1ccc2c(c1)-c1cccc(c1)C(=O)N(C)[C@H](C(=O)O)CCC(=O)N[C@H](C)CO2 [Ex. 42, (10R,15S)-4-methoxy-10,16-dimethyl-12,17-dioxo-8-oxa-11,16-diazatricyclo[16.3.1.0^2,7]docosa-1(22),2,4,6,18,20-hexaene-15-carboxylic acid] | 91 | > 4 | 100 | > 4 | > 60 | 100 | 100 | > 60
COc1ccc2c(c1)-c1cccc(c1)C(=O)N(C)[C@H](C(N)=O)CCC(=O)N[C@H](C)CO2 [Ex. 43, (10R,15S)-4-methoxy-10,16-dimethyl-12,17-dioxo-8-oxa-11,16-diazatricyclo[16.3.1.0^2,7]docosa-1(22),2,4,6,18,20-hexaene-15-carboxamide] | 97 | > 4 | 63 | > 4 | > 60 | 100 | 83 | > 60
CNC(=O)[C@@H]1CCC(=O)N[C@H](C)COc2ccc(OC)cc2-c2cccc(c2)C(=O)N1C [Ex. 44, (10R,15S)-4-methoxy-N,10,16-trimethyl-12,17-dioxo-8-oxa-11,16-diazatricyclo[16.3.1.0^2,7]docosa-1(22),2,4,6,18,20-hexaene-15-carboxamide] | 100 | > 4 | 83 | > 4 | > 60 | 68 | 77 | > 60
COc1ccc2c(c1)-c1cccc(c1)C(=O)N(C)[C@H](C(=O)Nc1ccccc1)CCC(=O)N[C@H](C)CO2 [Ex. 45, (10R,15S)-4-methoxy-10,16-dimethyl-12,17-dioxo-N-phenyl-8-oxa-11,16-diazatricyclo[16.3.1.0^2,7]docosa-1(22),2,4,6,18,20-hexaene-15-carboxamide] | 76 | > 4 | 46 | 3.17 | > 60 | 66 | 73 | > 60
COc1ccc2c(c1)-c1cccc(c1)C(=O)N(C)[C@H](C(=O)N1CCCC1)CCC(=O)N[C@H](C)CO2 [Ex. 46, (10R,15S)-4-methoxy-10,16-dimethyl-15-(1-pyrrolidinylcarbonyl)-8-oxa-11,16-diazatricyclo[16.3.1.0^2,7]docosa-1(22),2,4,6,18,20-hexaene-12,17-dione] | 100 | > 4 | 78 | > 4 | 32 | 26 | 71 | > 60
COc1ccc2c(c1)-c1cccc(c1)C(=O)N(C)[C@H](C(=O)NCCN(C)C)CCC(=O)N[C@H](C)CO2 [Ex. 47, (10R,15S)-N-[2-(dimethylamino)ethyl]-4-methoxy-10,16-dimethyl-12,17-dioxo-8-oxa-11,16-diazatricyclo[16.3.1.0^2,7]docosa-1(22),2,4,6,18,20-hexaene-15-carboxamide] | 99 | > 4 | 86 | > 4 | > 60 | 83 | 100 | > 60
COc1ccc2c(c1)-c1cccc(c1)C(=O)N(C)[C@H](C(=O)NCCCN)CCC(=O)N[C@H](C)CO2 [Ex. 49, (10R,15S)-N-(3-aminopropyl)-4-methoxy-10,16-dimethyl-12,17-dioxo-8-oxa-11,16-diazatricyclo[16.3.1.0^2,7]docosa-1(22),2,4,6,18,20-hexaene-15-carboxamide] | 95 | > 4 | 76 | > 4 | > 60 | 100 | 92 | > 60
COCCNC(=O)[C@@H]1CCC(=O)N[C@H](C)COc2ccc(OC)cc2-c2cccc(c2)C(=O)N1C [Ex. 51, (10R,15S)-4-methoxy-N-(2-methoxyethyl)-10,16-dimethyl-12,17-dioxo-8-oxa-11,16-diazatricyclo[16.3.1.0^2,7]docosa-1(22),2,4,6,18,20-hexaene-15-carboxamide] | 100 | > 4 | 80 | > 4 | > 60 | 71 | 69 | > 60
COc1ccc2c(c1)-c1cccc(c1)C(=O)N(C)[C@H](C(=O)NC1CC1)CCC(=O)N[C@H](C)CO2 [Ex. 52, (10R,15S)-N-cyclopropyl-4-methoxy-10,16-dimethyl-12,17-dioxo-8-oxa-11,16-diazatricyclo[16.3.1.0^2,7]docosa-1(22),2,4,6,18,20-hexaene-15-carboxamide] | 99 | > 4 | 95 | > 4 | > 60 | 100 | 78 | > 60
COc1ccc2c(c1)-c1cccc(c1)C(=O)N(C)[C@H](C(=O)NCC(C)C)CCC(=O)N[C@H](C)CO2 [Ex. 54, (10R,15S)-N-isobutyl-4-methoxy-10,16-dimethyl-12,17-dioxo-8-oxa-11,16-diazatricyclo[16.3.1.0^2,7]docosa-1(22),2,4,6,18,20-hexaene-15-carboxamide] | 100 | > 4 | 100 | > 4 | > 60 | 60 | 82 | > 60
C[C@H]1COc2cccc(c2)-c2cccc(c2)C(=O)N(C)[C@H](C(=O)NCc2cn(C)cn2)CCC(=O)N1 [Ex. 88, (9S,14S)-9,15-dimethyl-N-[(1-methyl-1H-imidazol-4-yl)methyl]-11,16-dioxo-7-oxa-10,15-diazatricyclo[15.3.1.1^2,6]docosa-1(21),2(22),3,5,17,19-hexaene-14-carboxamide] | – | – | 81 | > 4 | 56 | 49 | 62 | > 60
